Laboratory results taken from the supplement of paper PMC10307832.

Tests used:
Test in all cases: relative viability (nuclei count vs DMSO), 5 days (fraction); higher = more cells survive
CAL-12T = system: CAL-12T
Outline: (§1)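 A single step with final 0.05% Triton X-100, 1% formaldehyde and 1 ug/ml Hoechst fixed the cells and stained nuclei 5 days after treatment. Lung cancer cell lines in 1536-well plates had been treated by pin tool the day after seeding with one drug alone or a fixed anchor-drug dose plus five library-drug doses (not always all listed) in √10 steps, and nuclei were counted on 4× images. Relative viability is the ratio of nuclei in treated wells to nuclei in vehicle wells, taken as the median of duplicate plates.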

SW 1573 = system: SW 1573
Outline: as §1

HCC-366 = system: HCC-366
Outline: as §1

NCI-H1755 = system: NCI-H1755
Outline: as §1

NCI-H1915 = system: NCI-H1915
Outline: as §1

EMC-BAC-2 = system: EMC-BAC-2
Outline: as §1

NCI-H522 = system: NCI-H522
Outline: as §1

NCI-H1395 = system: NCI-H1395
Outline: as §1

NCI-H727 = system: NCI-H727
Outline: as §1

COR-L 105 = system: COR-L 105
Outline: as §1

HOP-62 = system: HOP-62
Outline: as §1

O=c1cc(N2CCOCC2)oc2c(-c3cccc4c3sc3ccccc34)cccc12 + O=C(CCCCCCC(=O)Nc1ccccc1)NO [Vorinostat] (partner 1 µM)
relative viability (CAL-12T; first compound 0.01 µM): 0.967 | relative viability (CAL-12T; first compound 0.03162 µM): 0.828 | relative viability (CAL-12T; first compound 0.1 µM): 0.727 | relative viability (CAL-12T; first compound 0.3162 µM): 0.748 | relative viability (CAL-12T; first compound 1 µM): 0.618 | relative viability (SW 1573; first compound 0.01 µM): 0.572 | relative viability (SW 1573; first compound 0.03162 µM): 0.767 | relative viability (SW 1573; first compound 0.1 µM): 0.55 | relative viability (SW 1573; first compound 0.3162 µM): 0.614 | relative viability (SW 1573; first compound 1 µM): 0.592 | relative viability (HCC-366; first compound 0.01 µM): 0.386 | relative viability (HCC-366; first compound 0.03162 µM): 0.362 | relative viability (HCC-366; first compound 0.1 µM): 0.339 | relative viability (HCC-366; first compound 0.3162 µM): 0.395 | relative viability (HCC-366; first compound 1 µM): 0.371 | relative viability (NCI-H1755; first compound 0.01 µM): 0.828 | relative viability (NCI-H1755; first compound 0.03162 µM): 0.775 | relative viability (NCI-H1755; first compound 0.1 µM): 0.793 | relative viability (NCI-H1755; first compound 0.3162 µM): 0.741 | relative viability (NCI-H1755; first compound 1 µM): 0.834 | relative viability (NCI-H1915; first compound 0.01 µM): 0.497 | relative viability (NCI-H1915; first compound 0.03162 µM): 0.596 | relative viability (NCI-H1915; first compound 0.1 µM): 0.521 | relative viability (NCI-H1915; first compound 0.3162 µM): 0.516 | relative viability (NCI-H1915; first compound 1 µM): 0.544 | relative viability (EMC-BAC-2; first compound 0.01 µM): 0.458 | relative viability (EMC-BAC-2; first compound 0.03162 µM): 0.512 | relative viability (EMC-BAC-2; first compound 0.1 µM): 0.533 | relative viability (EMC-BAC-2; first compound 0.3162 µM): 0.496 | relative viability (EMC-BAC-2; first compound 1 µM): 0.198 | relative viability (NCI-H522; first compound 0.01 µM): 0.986 | relative viability (NCI-H522; first compound 0.03162 µM): 0.932 | relative viability (NCI-H522; first compound 0.1 µM): 0.864 | relative viability (NCI-H522; first compound 0.3162 µM): 0.873 | relative viability (NCI-H522; first compound 1 µM): 0.666 | relative viability (NCI-H1395; first compound 0.03162 µM): 0.719 | relative viability (NCI-H1395; first compound 0.1 µM): 0.565 | relative viability (NCI-H1395; first compound 0.3162 µM): 1.05 | relative viability (NCI-H1395; first compound 1 µM): 0.635 | relative viability (NCI-H727; first compound 0.01 µM): 1.12 | relative viability (NCI-H727; first compound 0.03162 µM): 1.31 | relative viability (NCI-H727; first compound 0.1 µM): 0.626 | relative viability (NCI-H727; first compound 0.3162 µM): 1.04 | relative viability (NCI-H727; first compound 1 µM): 1.19 | relative viability (COR-L 105; first compound 0.01 µM): 0.764 | relative viability (COR-L 105; first compound 0.03162 µM): 0.788 | relative viability (COR-L 105; first compound 0.1 µM): 0.899 | relative viability (COR-L 105; first compound 0.3162 µM): 0.911 | relative viability (COR-L 105; first compound 1 µM): 0.918 | relative viability (HOP-62; first compound 0.01 µM): 0.554 | relative viability (HOP-62; first compound 0.03162 µM): 0.775
